ChEMBL document CHEMBL1126738, “(3SR,4aRS,6RS,8aRS)-6-[2-(1H-tetrazol-5-yl)ethyl]decahydroisoquinoline-3 - carboxylic acid: a structurally novel, systemically active, competitive AMPA receptor antagonist” (J Med Chem, 1993)

Target: Glutamate [NMDA] receptor
Test: Inhibitory activity against NMDA receptor using [3H]-CGS- 19755 as radioligand
Type: protein-complex assay

## O=C(O)[C@@H]1C[C@H]2C[C@@H](CCc3nn[nH]n3)CC[C@H]2CN1 [TEZAMPANEL ANHYDROUS]
  IC50: 12.1 µM
